Laboratory results from ChEMBL document CHEMBL5634143, “Development of teixobactin analogues containing hydrophobic, non-proteogenic amino acids that are highly potent against multidrug-resistant bacteria and biofilms” (Eur J Med Chem, 2023).
Converted amounts (≈) assume the structure as drawn. The source made the active and inactive calls. The rule behind the calls is not given here.

Experiments:
[1] = system: Staphylococcus saprophyticus; experiment: Antibacterial activity against Staphylococcus saprophyticus ATCC BAA 750 assessed as inhibition of bacterial growth; format: functional
[2] = system: Staphylococcus saprophyticus; experiment: Antibacterial activity against Staphylococcus saprophyticus ATCC 15305 assessed as inhibition of bacterial growth; format: functional
[3] = system: Staphylococcus saprophyticus; experiment: Antibacterial activity against Staphylococcus saprophyticus ATCC 49453 assessed as inhibition of bacterial growth; format: functional
[4] = system: Staphylococcus saprophyticus; experiment: Antibacterial activity against Staphylococcus saprophyticus ATCC 49907 assessed as inhibition of bacterial growth; format: functional
Enterococcus faecium [5] = experiment: Antibacterial activity against Vancomycin-resistant Enterococcus faecium 1014 assessed as inhibition of bacterial growth; format: functional
Enterococcus faecium [6] = experiment: Antibacterial activity against Vancomycin-resistant Enterococcus […] ATCC 700802 assessed as inhibition of bacterial growth; format: functional
Enterococcus faecium [7] = experiment: Antibacterial activity against Vancomycin-resistant Enterococcus […] ATCC 29212 assessed as inhibition of bacterial growth; format: functional; details: Enterococcus faecalis
Staphylococcus aureus [8] = experiment: Antibacterial activity against methicilin-resistant Staphylococcus aureus ATCC 700699 assessed as inhibition of bacterial growth; format: functional
Staphylococcus aureus [9] = experiment: Antibacterial activity against methicilin-resistant Staphylococcus aureus 42412 assessed as inhibition of bacterial growth; format: functional
Staphylococcus aureus [10] = experiment: Antibacterial activity against methicilin-resistant Staphylococcus aureus 21455 assessed as inhibition of bacterial growth; format: functional
Staphylococcus aureus [11] = experiment: Antibacterial activity against methicilin-resistant Staphylococcus aureus 1003 assessed as inhibition of bacterial growth; format: functional
Staphylococcus aureus [12] = experiment: Antibacterial activity against Staphylococcus aureus 29213 assessed as inhibition of bacterial growth; format: functional
Staphylococcus aureus [13] = experiment: Antibacterial activity against Staphylococcus aureus 4299 assessed as inhibition of bacterial growth; format: functional
[14] = system: Staphylococcus epidermidis; experiment: Antibacterial activity against Staphylococcus epidermidis 12228 assessed as inhibition of bacterial growth; format: functional
Bacillus cereus = experiment: Antibacterial activity against Bacillus cereus ATCC 11788 assessed as inhibition of bacterial growth; format: functional
Bacillus subtilis = experiment: Antibacterial activity against Bacillus subtilis ATCC 6633 assessed as inhibition of bacterial growth; format: functional
[15] = Hemolytic activity in rabbit erythrocytes assessed as hemolysis at 512 microg/ml relative to control; format: toxicity, cell-based, Oryctolagus cuniculus, Erythrocyte; details: at 512 µg/mL, read-out: Activity
Staphylococcus aureus [16] = experiment: Bactericidal activity against methicilin-resistant Staphylococcus aureus 21455 assessed as inhibition of bacterial growth at >=8 times MIC by time-kill kinetic assay; format: functional, organism-based
Staphylococcus aureus [17] = experiment: Bactericidal activity against methicilin-resistant Staphylococcus aureus 21455 assessed as reduction in bacterial colony forming unit at 16 times MIC observed after 8 hrs by time-kill kinetic assay; format: functional, organism-based
Staphylococcus aureus [18] = experiment: Bactericidal activity against methicilin-resistant Staphylococcus aureus 21455 assessed as reduction in bacterial colony forming unit at 16 times MIC observed after 24 hrs by time-kill kinetic assay; format: functional, organism-based
Staphylococcus aureus [19] = experiment: Bactericidal activity against methicilin-resistant Staphylococcus aureus 21455 assessed as reduction in bacterial growth by measuring minimum bactericidal concentration at 16 times MIC by time-kill kinetic assay; format: functional
Cell membrane [20] = experiment: Induction of cytoplasmic membrane depolarization in methicilin-resistant Staphylococcus aureus 21455 at 8 times MIC by DiSC3(5) dye-based fluorescence assay
Cell membrane [21] = experiment: Induction of cytoplasmic membrane depolarization in methicilin-resistant Staphylococcus aureus 21455 at 16 times MIC by DiSC3(5) dye-based fluorescence assay
Cell membrane [22] = experiment: Induction of cell membrane […] in methicilin-resistant Staphylococcus aureus 21455 assessed as increase in fluorescence intensity at 8 times MIC by SYTOX green dye based fluorescence analysis; format: cell membranes
Cell membrane [23] = experiment: Induction of cell membrane […] in methicilin-resistant Staphylococcus aureus 21455 assessed as increase in fluorescence intensity at 16 times MIC by SYTOX green dye based fluorescence analysis; format: cell membranes
Staphylococcus aureus [24] = experiment: Bactericidal activity against methicilin-resistant Staphylococcus aureus 21455 assessed as inhibition of bacterial growth by time-kill kinetic assay; format: functional, organism-based
Staphylococcus aureus [25] = experiment: Bactericidal activity against methicilin-resistant Staphylococcus aureus 21455 assessed as reduction in bacterial growth by measuring minimum bactericidal concentration at 4 times MIC by time-kill kinetic assay; format: functional
[26] = system: Staphylococcus epidermidis; experiment: Antibacterial activity against Staphylococcus epidermidis 1457 assessed as inhibition of biofilm formation at 10 ug/ml incubated for 5 hrs by confocal microscopic analysis; format: functional, organism-based; details: dose 10.0 µg/ml
Staphylococcus aureus [27] = experiment: Antibacterial activity against Staphylococcus aureus 15981 assessed as inhibition of biofilm formation at 10 ug/ml incubated for 5 hrs by confocal microscopic analysis; format: functional, organism-based; details: dose 10.0 µg/ml
[28] = Hemolytic activity in rabbit erythrocytes assessed as hemolysis at 64 microg/ml relative to control; format: toxicity, cell-based, Oryctolagus cuniculus, Erythrocyte; details: at 64 µg/mL, read-out: Activity
[29] = Hemolytic activity in rabbit erythrocytes assessed as hemolysis at 256 microg/ml relative to control; format: toxicity, cell-based, Oryctolagus cuniculus, Erythrocyte; details: at 256 µg/mL, read-out: Activity
Staphylococcus aureus [30] = experiment: Bactericidal activity against methicilin-resistant Staphylococcus aureus 21455 assessed as reduction in bacterial colony forming unit at 16 times MIC observed after 2 hrs by time-kill kinetic assay; format: functional
Staphylococcus aureus [31] = experiment: Bactericidal activity against methicilin-resistant Staphylococcus aureus 21455 assessed as reduction in bacterial viability at 2 times MIC observed after 4 hrs by time-kill kinetic assay relative to control; format: functional
Pseudomonas aeruginosa [32] = experiment: Antibacterial activity against Pseudomonas aeruginosa ATCC 9027 assessed as inhibition of bacterial growth; format: functional
Pseudomonas aeruginosa [33] = experiment: Antibacterial activity against Pseudomonas aeruginosa DSMZ 1117 assessed as inhibition of bacterial growth; format: functional

Compound	MIC [1]	MIC [2]	MIC [3]	MIC [4]	MIC (Enterococcus faecium [5])	MIC (Enterococcus faecium [6])	MIC (Enterococcus faecium [7])	MIC (Staphylococcus aureus [8])	MIC (Staphylococcus aureus [9])	MIC (Staphylococcus aureus [10])	MIC (Staphylococcus aureus [11])	MIC (Staphylococcus aureus [12])	MIC (Staphylococcus aureus [13])	MIC [14]	MIC (Bacillus cereus)	MIC (Bacillus subtilis)	hemolysis at 512 microg/ml [15]	Activity (Cell membrane [20])	Activity (Cell membrane [21])	Activity (Cell membrane [22])	other results
CC[C@H](C)[C@H](NC(=O)[C@@H](Cc1ccccc1)NC)C(=O)N[C@@H](CO)C(=O)N[C@H](CCC(N)=O)C(=O)N[C@@H](C(=O)N[C@H](C(=O)N[C@@H](CO)C(=O)N[C@H]1C(=O)N[C@@H](C)C(=O)N[C@@H](C2CCCCC2)C(=O)N[C@@H]([C@@H](C)CC)C(=O)O[C@H]1C)[C@@H](C)CC)[C@@H](C)CC	0.063 µg/mL (≈ 0.0513 µM)	< 0.063 µg/mL	< 0.063 µg/mL	0.063 µg/mL (≈ 0.0513 µM)	0.25 µg/mL (≈ 0.204 µM)	0.063 µg/mL (≈ 0.0513 µM)	0.125 µg/mL (≈ 0.102 µM)	0.125 µg/mL (≈ 0.102 µM)	0.063 µg/mL (≈ 0.0513 µM)	0.125 µg/mL (≈ 0.102 µM)	0.063 µg/mL (≈ 0.0513 µM)	0.063 µg/mL (≈ 0.0513 µM)	0.063 µg/mL (≈ 0.0513 µM)	0.063 µg/mL (≈ 0.0513 µM)	0.063 µg/mL (≈ 0.0513 µM)	0.063 µg/mL (≈ 0.0513 µM)	≤ 2%	inactive	inactive	8.8%	Activity (Staphylococcus aureus [16]): Active; Activity (Staphylococcus aureus [17]): Active; Activity (Staphylococcus aureus [18]): Active; MBC (Staphylococcus aureus [19]): 2 µg/mL (≈ 1.63 µM); Activity (Cell membrane [23]): 10.6%
CCCC[C@@H]1NC(=O)[C@H](C)NC(=O)[C@H](NC(=O)[C@H](CO)NC(=O)[C@@H](NC(=O)[C@H](NC(=O)[C@@H](CCC(N)=O)NC(=O)[C@H](CO)NC(=O)[C@@H](NC(=O)[C@@H](Cc2ccccc2)NC)[C@@H](C)CC)[C@@H](C)CC)[C@@H](C)CC)[C@H](C)OC(=O)[C@H]([C@@H](C)CC)NC1=O	0.063 µg/mL (≈ 0.0524 µM)	0.063 µg/mL (≈ 0.0524 µM)	0.063 µg/mL (≈ 0.0524 µM)	0.063 µg/mL (≈ 0.0524 µM)	1 µg/mL (≈ 0.832 µM)	0.5 µg/mL (≈ 0.416 µM)	1 µg/mL (≈ 0.832 µM)	0.5 µg/mL (≈ 0.416 µM)	0.125 µg/mL (≈ 0.104 µM)	0.25 µg/mL (≈ 0.208 µM)	0.5 µg/mL (≈ 0.416 µM)	0.063 µg/mL (≈ 0.0524 µM)	0.25 µg/mL (≈ 0.208 µM)	0.063 µg/mL (≈ 0.0524 µM)	0.063 µg/mL (≈ 0.0524 µM)	0.063 µg/mL (≈ 0.0524 µM)	≤ 2%	–	–	–	Activity (Staphylococcus aureus [24]): Dose-Dependent Effect; MBC (Staphylococcus aureus [25]): 1 µg/mL (≈ 0.832 µM); Activity [26]: Active; Activity (Staphylococcus aureus [27]): Active
CC[C@H](C)[C@H](NC(=O)[C@@H](Cc1ccccc1)NC)C(=O)N[C@@H](CCCNC(=N)N)C(=O)N[C@H](CCCNC(=N)N)C(=O)N[C@@H](C(=O)N[C@H](C(=O)N[C@@H](CO)C(=O)N[C@H]1C(=O)N[C@@H](C)C(=O)N[C@@H](C2CCCCC2)C(=O)N[C@@H]([C@@H](C)CC)C(=O)O[C@H]1C)[C@@H](C)CC)[C@@H](C)CC	< 0.063 µg/mL	< 0.063 µg/mL	0.125 µg/mL (≈ 0.0944 µM)	0.063 µg/mL (≈ 0.0476 µM)	1 µg/mL (≈ 0.755 µM)	2 µg/mL (≈ 1.51 µM)	2 µg/mL (≈ 1.51 µM)	0.25 µg/mL (≈ 0.189 µM)	0.063 µg/mL (≈ 0.0476 µM)	0.25 µg/mL (≈ 0.189 µM)	0.5 µg/mL (≈ 0.377 µM)	0.063 µg/mL (≈ 0.0476 µM)	0.125 µg/mL (≈ 0.0944 µM)	0.063 µg/mL (≈ 0.0476 µM)	2 µg/mL (≈ 1.51 µM)	0.063 µg/mL (≈ 0.0476 µM)	–	Active	Active	Active	hemolysis at 64 microg/ml [28]: 3.7%; hemolysis at 256 microg/ml [29]: 18%; Activity (Staphylococcus aureus [24]): Dose-Dependent Effect; Activity (Staphylococcus aureus [30]): >=3 log10CFU; Activity (Staphylococcus aureus [31]): >=99.9%; Activity (Cell membrane [23]): Active; Activity [26]: Active; Activity (Staphylococcus aureus [27]): Active
CC[C@H](C)[C@H](NC(=O)[C@@H](Cc1ccccc1)NC)C(=O)N[C@@H](CO)C(=O)N[C@H](CCCNC(=N)N)C(=O)N[C@@H](C(=O)N[C@H](C(=O)N[C@@H](CO)C(=O)N[C@H]1C(=O)N[C@@H](C)C(=O)N[C@@H](C2CCCCC2)C(=O)N[C@@H]([C@@H](C)CC)C(=O)O[C@H]1C)[C@@H](C)CC)[C@@H](C)CC	0.063 µg/mL (≈ 0.0502 µM)	< 0.063 µg/mL	< 0.063 µg/mL	0.063 µg/mL (≈ 0.0502 µM)	0.063 µg/mL (≈ 0.0502 µM)	0.063 µg/mL (≈ 0.0502 µM)	0.063 µg/mL (≈ 0.0502 µM)	0.063 µg/mL (≈ 0.0502 µM)	0.063 µg/mL (≈ 0.0502 µM)	0.25 µg/mL (≈ 0.199 µM)	0.063 µg/mL (≈ 0.0502 µM)	0.063 µg/mL (≈ 0.0502 µM)	0.063 µg/mL (≈ 0.0502 µM)	0.063 µg/mL (≈ 0.0502 µM)	0.063 µg/mL (≈ 0.0502 µM)	0.063 µg/mL (≈ 0.0502 µM)	≤ 2%	inactive	inactive	Active	MIC (Pseudomonas aeruginosa [32]): > 32 µg/mL; MIC (Pseudomonas aeruginosa [33]): > 32 µg/mL; Activity (Staphylococcus aureus [24]): Dose-Dependent Effect; Activity (Staphylococcus aureus [17]): Active; Activity (Staphylococcus aureus [18]): Active; Activity (Cell membrane [23]): Active; Activity [26]: Active; Activity (Staphylococcus aureus [27]): Active
